From US20220315534A1, “BETA ADRENERGIC AGONIST AND METHODS OF USING THE SAME” (Curasen Therapeutics, Inc., priority 2019, published 2022) come the findings set out here.

For assay [1], the target named is T1, β1-adrenergic receptor (B1-AR) (Homo sapiens, UniProt P08588).
T1 construct: expressed in transfected cells
The experiment in a line: cAMP Gs dynamic HTRF assay, cells expressing β1-adrenergic receptor. Format: cell-based. Conditions: CHO-K1 (HitHunter) cells; read-out: Average pEC50 [Receptor subtype: B1-AR; Cell type: CHO-K1 (HitHunter)] (converted). Here is the method:
(§1) cAMP homogeneous time-resolved fluorescence (HTRF): experimental methods. Compound efficacy is determined using the cAMP Gs dynamic HTRF assay (Cisbio, catalog #62AM4PEC) largely following the manufacturer's instructions, also detailed below.
(§2) Standard serial dilution curves are 10-point, 5-fold dilutions starting from a highest concentration of 10 μM. […] Assay plates are centrifuged at 500×g for 10 seconds. Compounds and IBMX are prepared at 2× final dose to compensate for addition of cells.
(§3) Cell preparation: 1× stimulation buffer, washing PBS (Dulbecco's phosphate-buffered saline, —Mg —Ca; Caisson Labs, catalog #PBL01), assay PBS (Dulbecco's phosphate-buffered saline, +Mg, +Ca; Caisson Labs, catalog #PBL02) and Versene (0.02% EDTA disodium salt solution in PBS without calcium or magnesium; Caisson Labs, catalog #EDL01) are pre-warmed to 37° C. Cells expressing beta-adrenergic receptor were washed in washing PBS to remove growth medium and then released from the surface by incubating with Versene for 5-10 minutes at 37° C. Cells are harvested using assay PBS, counted manually by hemocytometer or by an automated cell counter, pelleted by centrifugation (200×g, 5 minutes) and resuspended in 37° C. 1× stimulation buffer to a final density of […]. 5 μL of the suspended cell solution (7500 cell total) are added to all wells of the 384 well assay plate, the assay plate was covered with an Axygen® plate seal (Corning PCR-SP) and incubated in a humidified 37° C. environment supplemented with 5% CO2 for 30 minutes.
(§4) HTRF reagent addition, reading and data analysis: After 30 minutes of cell stimulation with test compound, the assay plates are centrifuged at 500×g for 10 seconds, and incubation was stopped with the addition of 5 μL cAMP-D2 acceptor, diluted 1:21 in detection and lysis buffer 2 (Cisbio 62CL2FDF) was added to all cells. Subsequently, 5 μL Anti-cAMP-Eu Donor, diluted 1:21 in detection and lysis buffer 2, was added to cells. Plates were sealed and reactions gently ‘vortexed’ at 900 rpm on a Heidolph Titramax 1000 for at least 30 minutes at room temperature. Plates are centrifuged again at 500×g for 10 seconds, and HTRF was measured using a Tecan Spark plate reader at 50 flashes per well. […] Potency estimates (EC50 and pEC50) are derived from the four-parameter nonlinear regression of the concentration-effect curve and an estimate of relative efficacy is determined by comparing the magnitude of the test compound HTRF signal window (min-max dose) with the signal window of the full agonist control, isoproterenol.
On the technique in general: Time-resolved FRET reads energy transfer from a long-lived donor to a nearby acceptor.

For assay [2], the target named is T2, β2-adrenergic receptor (B2-AR) (Homo sapiens, UniProt P07550).
T2 construct: expressed in transfected cells
The experiment in a line: cAMP Gs dynamic HTRF assay, cells expressing β2-adrenergic receptor. In kind it is cell-based. The following applies: CHO-K1 (HitHunter) cells; read-out: Average pEC50 [Receptor subtype: B2-AR; Cell type: CHO-K1 (HitHunter)] (converted). Here is the method: as §1, §2, §3, §4

T2 sequence (P07550 whole entry): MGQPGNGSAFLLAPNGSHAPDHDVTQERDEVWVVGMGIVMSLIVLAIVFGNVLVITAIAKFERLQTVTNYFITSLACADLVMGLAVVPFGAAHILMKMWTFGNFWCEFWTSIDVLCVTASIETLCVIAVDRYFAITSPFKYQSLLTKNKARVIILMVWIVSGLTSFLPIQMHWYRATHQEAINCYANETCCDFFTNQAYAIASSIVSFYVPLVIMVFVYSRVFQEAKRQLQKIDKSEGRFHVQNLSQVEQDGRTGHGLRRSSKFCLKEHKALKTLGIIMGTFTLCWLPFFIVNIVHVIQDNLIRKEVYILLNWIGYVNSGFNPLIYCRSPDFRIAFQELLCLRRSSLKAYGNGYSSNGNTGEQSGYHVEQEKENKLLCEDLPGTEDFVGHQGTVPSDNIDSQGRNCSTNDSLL
T1 sequence (P08588 whole entry): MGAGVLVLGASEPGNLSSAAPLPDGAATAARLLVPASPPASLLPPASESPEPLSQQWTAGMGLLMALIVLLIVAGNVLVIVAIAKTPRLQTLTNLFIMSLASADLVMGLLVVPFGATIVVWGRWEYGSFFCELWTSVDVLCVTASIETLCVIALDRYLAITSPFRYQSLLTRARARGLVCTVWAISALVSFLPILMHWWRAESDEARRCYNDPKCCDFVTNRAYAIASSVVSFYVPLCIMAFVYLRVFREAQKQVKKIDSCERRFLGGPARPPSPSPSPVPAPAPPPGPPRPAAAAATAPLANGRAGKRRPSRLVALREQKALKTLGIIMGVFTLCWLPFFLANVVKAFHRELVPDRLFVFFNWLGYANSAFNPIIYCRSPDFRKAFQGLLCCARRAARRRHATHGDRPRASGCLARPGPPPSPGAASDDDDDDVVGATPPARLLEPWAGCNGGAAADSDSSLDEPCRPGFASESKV

For the compound `CC(C)(C)NC[C@H](O)c1ccnc2[nH]ncc12` [Compound 04-127], the EC50 in assay [1] is 10 to 100 nM; in assay [2], less than 10 nM.
As to `CC(C)(C)NC[C@H](O)c1c2cn[nH]c2cc[n+]1[O-]` [Compound 04-106], the EC50 in assay [1] and in assay [2] was 100 to 1000 nM throughout.
On to `Cc1ccc2[nH]ncc2c1[C@@H](O)CNC(C)(C)C` [Compound 04-138], for which the results for the EC50 in assay [1] and in assay [2] were greater than 1000 nM and 100 to 1000 nM, respectively.
Regarding `Cn1ncc2cc([C@H](O)CNC(C)(C)C)ccc21` [Compound 04-50], the results for the EC50 in assay [1] and in assay [2] were 100 to 1000 nM and 10 to 100 nM, respectively.
Turning to `CC(C)(C)NC[C@H](O)c1ccc2[nH]ncc2c1` [Compound 04-48], the EC50 in assay [1] and in assay [2] was greater than 1000 nM throughout.
`CC(C)(C)NC[C@H](O)c1ccc(Cl)c2[nH]ncc12` [Compound 04-108]: the EC50 in assay [1] and in assay [2] was less than 10 nM in each case.
On to `CC(C)(C)NC[C@@H](O)c1c2cn[nH]c2cc[n+]1[O-]` [Compound 04-107], for which the EC50 in assay [1] was greater than 1000 nM; in assay [2], 100 to 1000 nM.
For `Cc1nc(N)c(C#N)cc1[C@H](O)CNC(C)(C)C` [Compound 02-11], in that order: greater than 1000 nM and greater than 1000 nM.
In the same order, the values of `CC(C)(C)NC[C@H](O)c1ccnc2cccnc12` [Compound 04-73] are 10 to 100 nM and 10 to 100 nM.
For `CC(C)(C)NC[C@@H](O)c1cccc2ccc(C#N)nc12` [Compound 04-71], the EC50 in assay [1] and in assay [2] was 100 to 1000 nM each time.
Regarding `CC(C)(C)NC[C@H](O)c1cccc2nccnc12` [Compound 04-75], the EC50 in assay [1] and in assay [2] was less than 10 nM throughout.
As for `Cc1cc2c([C@@H](O)CNC(C)(C)C)cccc2[nH]c1=O` [Compound 04-18], the EC50 in assay [1] was less than 10 nM; in assay [2], 10 to 100 nM.
In the same order, the values of `CC(C)(C)NC[C@H](O)c1cccc2ccc(C#N)nc12` [Compound 04-72] are less than 10 nM and less than 10 nM.
Consider `CC(C)(C)NC[C@H](O)c1cccc2c(C(F)(F)F)ccnc12` [Compound 04-69], for which the values for the EC50 in assay [1] and in assay [2] were 10 to 100 nM and 100 to 1000 nM, respectively.
In the same order, the values of `Cc1cc(C(O)CNC(C)(C)C)nnc1N` (stereo not shown) [Compound 02-3] are greater than 1000 nM and 100 to 1000 nM.
In the case of `CC(C)(C)NC[C@H](O)c1cccc(O)n1` [Compound 02-7], the EC50 in assay [1] and in assay [2] was greater than 1000 nM each time.
For the compound `CC(C)(C)NC[C@H](O)c1cccc2[nH]cnc12` [Compound 04-24], the EC50 in assay [1] and in assay [2] was 10 to 100 nM each time.
In the case of `CC(C)(C)NC[C@H](O)c1cccc2cccnc12` [Compound 04-94], the EC50 in assay [1] and in assay [2] was less than 10 nM each time.
On to `COc1ccc([C@@H](O)CNC(C)(C)C)c2cn[nH]c12` [Compound 04-150], for which the EC50 in assay [1] is 10 to 100 nM; in assay [2], less than 10 nM.
Regarding `CC(C)(C)NC[C@H](O)c1cccc2c1C1(CC1)C(=O)N2` [Compound 04-103], the EC50 in assay [1] and in assay [2] was 100 to 1000 nM in each case.
On to `CC(C)(C)NC[C@H](O)c1cccc2c1C1(CC1)CN2` [Compound 04-120], for which the EC50 was greater than 1000 nM in assay [1] and 100 to 1000 nM in assay [2].
In the case of `CC(C)(C)NC[C@@H](O)c1ccc2cccc(C#N)c2n1` [Compound 04-134], the EC50 in assay [1] is 10 to 100 nM; in assay [2], 100 to 1000 nM.
In the case of `CC(C)(C)NC[C@H](O)c1cccc2[nH]nc(C#N)c12` [Compound 04-151], the EC50 was less than 10 nM in assay [1] and 10 to 100 nM in assay [2].
In the same order, the values of `CC(C)CNC[C@H](O)c1cc(F)cc2[nH]ncc12` [Compound 04-146] are less than 10 nM and less than 10 nM.
As for `Cc1cc([C@@H](O)CNC(C)(C)C)c2cn[nH]c2c1` [Compound 04-109], the EC50 in assay [1] is 10 to 100 nM; in assay [2] it was less than 10 nM.
For `Cc1cc([C@@H](O)CNC(C)(C)C)cc2nc[nH]c12` [Compound 04-155], in that order: greater than 1000 nM and 100 to 1000 nM.
Regarding `CC(C)(C)NC[C@@H](O)c1ccc2cccc(Cl)c2n1` [Compound 04-40], the EC50 in assay [1] and in assay [2] was 10 to 100 nM each time.
Regarding `CC(C)(C)NC[C@H](O)c1ccc(F)c2[nH]c3ccccc3c12` [Compound 04-122], the EC50 in assay [1] and in assay [2] was less than 10 nM each time.
With `Cn1c(=O)ccc2c([C@H](O)CNC(C)(C)C)cccc21` [Compound 04-15], the EC50 in assay [1] is greater than 1000 nM; in assay [2], 100 to 1000 nM.
Turning to `CC(C)(C)NC[C@H](O)c1ccc2c(c1)[nH]c1ncccc12` [Compound 04-128], the results for the EC50 in assay [1] and in assay [2] were greater than 1000 nM and 100 to 1000 nM, respectively.
For `CC(C)(C)NC[C@H](O)c1ccc(F)c2cccnc12` [Compound 04-80], in that order: less than 10 nM and less than 10 nM.
With `Cc1ccc2cccc([C@H](O)CNC(C)(C)C)c2n1` [Compound 04-87], the EC50 in assay [1] and in assay [2] was 100 to 1000 nM in each case.
On to `CC(C)(C)NC[C@@H](O)c1cccc2cccnc12` [Compound 04-93], for which the EC50 in assay [1] and in assay [2] was 100 to 1000 nM throughout.
Take `Cc1ccc2cccc([C@@H](O)CNC(C)(C)C)c2n1` [Compound 04-88]: the EC50 in assay [1] and in assay [2] was less than 10 nM in each case.
Consider `CC(C)(C)NC[C@H](O)c1cccc2[nH]c(=O)ccc12` [Compound 04-1, (R)-5-(2-(tert-butylamino)-1-hydroxyethyl)quinolin-2(1H)-one], for which the EC50 in assay [1] and in assay [2] was less than 10 nM each time.
As for `Cc1nc(N)c(Cl)cc1[C@@H](O)CNC(C)(C)C` [Compound 02-14], the values for the EC50 in assay [1] and in assay [2] were 10 to 100 nM and less than 10 nM, respectively.
`CC(C)(C)NC[C@H](O)c1c(Cl)ccc2[nH]ncc12` [Compound 04-139]: the EC50 in assay [1] and in assay [2] was greater than 1000 nM throughout.
Turning to `CC(C)(C)NC[C@H](O)c1ccc2c(n1)CCC2` [Compound 04-9], the EC50 in assay [1] was 100 to 1000 nM; in assay [2] it was 10 to 100 nM.
As to `COc1ccc(CC(C)(C)NC[C@H](O)c2cccc3[nH]c4ccccc4c23)cc1` [Compound 04-55], the figures for the EC50 in assay [1] and in assay [2] were 10 to 100 nM and less than 10 nM, respectively.
For `CC(C)(C)NC[C@H](O)c1cccc2c1OCC(=O)N2` [Compound 04-19], in that order: less than 10 nM and less than 10 nM.
`CC(C)(C)NC[C@H](O)c1ccc(C(F)(F)F)c2cccnc12` [Compound 04-82]: the EC50 in assay [1] and in assay [2] was less than 10 nM in each case.
